Where two headings read alike, the source gives them in different places.
Tests used:
[1] = test system: MTB H37Rv; assay: Macrophage infection and CFU assay (intracellular survival in RAW 264.7); assay type: cell-based, Mycobacterium tuberculosis; settings: for Percent survival of MTB (percentage of control): adjunctive action experiment, dose not given
[2] = test system: MDR clinical isolate of MTB, strain-2; assay type: cell-based, Mycobacterium tuberculosis; settings: 10μM and 20μM, 48 and 72h
[3] = test system: GFP-MTB H37Rv infected RAW 264.7 cells; assay: Confocal microscopy of phagosome lysosome fusion; assay type: cell-based, Murine; settings: 10μM and 20μM, 48h, MOI 5
Description: RAW 264.7 cells (5 x 10^5 cells/ml) were seeded on sterile coverslips in 6-well plates and incubated at 37°C for overnight in CO2 incubator. Next day cells were infected with GFP-MTB H37Rv at MOI 5 and treated with CMN for 48h. Lysotracker Red (Thermo) was added to each well at concentration of 70nM for 3h prior to the end of incubation. Coverslips were washed twice with sterile 1XPBS and fixed with 4% para formaldehyde. Cover slips were mounted on glass slides using Prolong® Gold Antifade (Thermo) mounting reagent containing DAPI and images were acquired on Zeiss LSM 510 Meta confocal microscope (Carl Zeiss) equipped with 63X oil immersion lens. Optical sections with Z-stack were taken to evaluate colocalization and images were deconvolved.

[4] = test system: Caspase-3, cleaved caspase-3, cleaved PARP, Bax and Bcl-2 in RAW cells with or without MTB infection; assay: Western blot of pro and anti-apoptotic proteins; assay type: cell-based, Murine; settings: 10μM and 20μM
Description: (§1) Cells were harvested, washed thrice with 1X cold PBS and lysed in RIPA lysis buffer containing 1% protease inhibitor cocktail (Sigma) and 3% phosphatase inhibitor cocktail (Sigma). Total protein concentration in the cell lysate was estimated by Bradford reagent (Sigma). Samples containing equal amounts of protein (80μg/well) were run on 10% SDS PAGE followed by electro transfer on nitrocellulose membrane. Membranes were blocked with blocking buffer (5% w/v skimmed milk in 1X TBST) for 30 minutes followed by incubation with respective antibodies for 4 h at room temperature. Further, membranes were washed thrice with 1xTBST for 15 minutes and incubated appropriate secondary antibody HRP conjugate for 2 h and blots were developed with Enhanced Chemiluminescence kit (Roche) according to manufacturer’s protocol. Densitometric analysis was performed using ImageJ software.

[5] = test system: MDR clinical isolate of MTB, strain-1; assay type: cell-based, Mycobacterium tuberculosis; settings: 10μM and 20μM, 48 and 72h
[6] = test system: LC3-I to LC3-II conversion and p62 degradation in RAW 264.7 cells; assay: Western blot of autophagy markers, uninfected cells; assay type: cell-based, Murine; settings: 10μM and 20μM, 24h
Description: as §1

[7] = Oral pharmacokinetics study; settings: 50 mg/kg
[8] = test system: LC3-I to LC3-II conversion and p62 degradation in MTB H37Rv infected RAW cells; assay: Western blot of autophagy markers, MTB infected cells; assay type: cell-based, Murine; settings: 10μM and 20μM, MTB H37Rv infected RAW macrophages
Description: as §1

COc1cc(C=CC(=O)CC(=O)C=Cc2ccc(O)c(OC)c2)ccc1O [CMN, 1,7-bis (4-hydroxy-3-methoxy-phenyl) hepta-1,6-diene-3,5-dione]
Percent survival (percentage of control) ([1]; 10μM, 48h, in presence of autophagy inhibitor 3-MA): 87.1 ± 6.6%
Percent survival (percentage of control) ([1]; 10μM, 48h post infection, RAW 264.7, MOI 5): 57 ± 4.6%
Percent survival (percentage of control) ([1]; 10μM, 72h, in presence of autophagy inhibitor 3-MA): 80.1 ± 6.8%
Percent survival (percentage of control) ([1]; 10μM, 72h post infection, RAW 264.7, MOI 5): 49.1 ± 7.8%
Percent survival (percentage of control) ([1]; 20μM, 48h, RAW 264.7, MOI 5): 47.7 ± 4.1%
Percent survival (percentage of control) ([1]; 20μM, 48h, in presence of autophagy inhibitor 3-MA): 87.1 ± 4.6%
Percent survival (percentage of control) ([1]; 20μM, 72h, RAW 264.7, MOI 5): 45.6 ± 6.1%
Percent survival (percentage of control) ([1]; 20μM, 72h, in presence of autophagy inhibitor 3-MA): 85.7 ± 8.8%
Percent survival of MTB (percentage of control) ([1]; 48h of treatment): 41.6 ± 3.5%
Percent survival of MTB (percentage of control) ([1]; 72h of treatment): 34.8 ± 3.0%
Percent survival [2]: inhibited the percent survival
Percent survival ([2]; treatment with 3-MA): increase in the percent survival that was comparable to untreated controls
Phagosome lysosome fusion (co localization of GFP and Lysotracker Red) [3]: formation of yellow compartment in both the CMN treatment groups after 48h
Expression of anti-apoptotic protein Bcl-2 ([4]; 24h, RAW cells with or without MTB infection): downregulation
Expression of pro apoptotic proteins cleaved caspase-3, cleaved PARP and Bax ([4]; 24h post treatment, compared to untreated cells): upregulated
Percent survival [5]: inhibited the percent survival
Percent survival ([5]; treatment with 3-MA): increase in the percent survival that was comparable to untreated controls
Conversion of LC3-I to LC3-II (immunoblotting) [6]: conversion of LC3-I to II at 10μM and 20μM dose
Degradation of p62 (immunoblotting) [6]: p62 degradation at 10μM and 20μM dose
AUC(0-inf) ([7]; BALB/c, mouse, in vivo, po): 170 ng·h/mL
AUC(0-t) ([7]; BALB/c, mouse, in vivo, po): 119 ng·h/mL
Cmax ([7]; BALB/c, mouse, in vivo, po): 45.2 ng/mL
MRT inf ([7]; BALB/c, mouse, in vivo, po): 5.07 h
Tmax ([7]; BALB/c, mouse, in vivo, po): 0.25 h
half-life ([7]; BALB/c, mouse, in vivo, po): 3.66 h
k el ([7]; BALB/c, mouse, in vivo, po): 5.28e-05 s⁻¹
Time up to which CMN was detected in plasma after administration ([7]; oral, BALB/c mice): up to 8 h
Autophagy induction (LC3-I to LC3-II conversion and p62 degradation) [8]: autophagy induction in MTB infected cells after CMN treatment

NNC(=O)c1ccncc1 [INH, isoniazid]
Percent survival of MTB (percentage of control) ([1]; 48h of treatment): 35.1 ± 2.8%
Percent survival of MTB (percentage of control) ([1]; 72h of treatment): 22.9 ± 4.5%

Source: PMC10424441, “Macrophage targeted polymeric curcumin nanoparticles limit intracellular survival of Mycobacterium tuberculosis through induction of autophagy and augment anti-TB activity of isoniazid in RAW 264.7 macrophages” (Frontiers in Immunology, 2023)
